According to ChEMBL document CHEMBL1201861, “Genomics of Drug Sensitity in Cancer screening data, Wellcome Trust Sanger Institute”:
pIC50: −log10 of the molar value.

Columns and labels:
Experiment in all cases: cells
Format in all cases: functional, cell-based
LP-1 = conditions: Homo sapiens;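 note: growth inhibition of human LP-1 cells, with the read-out taken from a cell viability assay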
Description: SANGER: Inhibition of human LP-1 cell growth in a cell viability assay.

LC4-1 = conditions: Homo sapiens;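 note: growth inhibition of LC4-1 cells, read out with a cell viability assay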
Description: SANGER: Inhibition of human LC4-1 cell growth in a cell viability assay.

CMK = conditions: Homo sapiens;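 note: growth inhibition of CMK cells, read out as cell viability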
Description: SANGER: Inhibition of human CMK cell growth in a cell viability assay.

NB14 = conditions: Homo sapiens;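 note: growth inhibition of NB14 cells measured with a cell viability assay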
Description: SANGER: Inhibition of human NB14 cell growth in a cell viability assay.

Raji = conditions: Homo sapiens;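 note: cell viability assay measuring inhibition of Raji cell growth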
Description: SANGER: Inhibition of human Raji cell growth in a cell viability assay.

SK-MM-2 = conditions: Homo sapiens;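 note: growth inhibition of human SK-MM-2 cells, read out with a cell viability assay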
Description: SANGER: Inhibition of human SK-MM-2 cell growth in a cell viability assay.

EVSA-T = conditions: Homo sapiens;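 note: growth inhibition of EVSA-T cells, read out with a cell viability assay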
Description: SANGER: Inhibition of human EVSA-T cell growth in a cell viability assay.

Kasumi 1 = conditions: Homo sapiens;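 note: growth inhibition of human Kasumi-1 cells, read out by a cell viability assay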
Description: SANGER: Inhibition of human KASUMI-1 cell growth in a cell viability assay.

NB12 = conditions: Homo sapiens;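 note: growth inhibition of human NB12 cells, read out by a cell viability assay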
Description: SANGER: Inhibition of human NB12 cell growth in a cell viability assay.

RL = conditions: Homo sapiens
Description: SANGER: Inhibition of human RL cell growth in a cell viability assay.

SR = conditions: Homo sapiens
Description: SANGER: Inhibition of human SR cell growth in a cell viability assay.

EHEB = conditions: Homo sapiens;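 note: growth inhibition of human EHEB cells, read out with a cell viability assay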
Description: SANGER: Inhibition of human EHEB cell growth in a cell viability assay.

D-542MG = conditions: Homo sapiens
Description: SANGER: Inhibition of human D-542MG cell growth in a cell viability assay.

UACC-812 = conditions: Homo sapiens
Description: SANGER: Inhibition of human UACC-812 cell growth in a cell viability assay.

LOUCY = conditions: Homo sapiens;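 note: growth inhibition of human LOUCY cells, read out with a cell viability assay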
Description: SANGER: Inhibition of human LOUCY cell growth in a cell viability assay.

NCI-H889 = conditions: Homo sapiens;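 note: cell growth inhibition of the cell line, read out with a viability assay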
Description: SANGER: Inhibition of human NCI-H889 cell growth in a cell viability assay.

NCI-H1694 = conditions: Homo sapiens;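 note: cell viability assay measuring inhibition of growth in human NCI-H1694 cells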
Description: SANGER: Inhibition of human NCI-H1694 cell growth in a cell viability assay.

KMS-12-PE = conditions: Homo sapiens;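 note: growth inhibition of human KMS-12-PE cells, measured with a cell viability assay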
Description: SANGER: Inhibition of human KMS-12-PE cell growth in a cell viability assay.

SNU-C1 = conditions: Homo sapiens;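 note: growth inhibition of SNU-C1 human cells, read out by a cell viability assay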
Description: SANGER: Inhibition of human SNU-C1 cell growth in a cell viability assay.

NCI-H345 = conditions: Homo sapiens;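 note: growth inhibition of NCI-H345 cells measured with a cell viability assay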
Description: SANGER: Inhibition of human NCI-H345 cell growth in a cell viability assay.

SIMA = conditions: Homo sapiens;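 note: growth inhibition of SIMA cells, measured with a cell viability readout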
Description: SANGER: Inhibition of human SIMA cell growth in a cell viability assay.

HCC1599 = conditions: Homo sapiens;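 note: growth inhibition of HCC1599 cells, read out in a cell viability assay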
Description: SANGER: Inhibition of human HCC1599 cell growth in a cell viability assay.

HCC1937 = conditions: Homo sapiens;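 note: growth inhibition measured with a cell viability read-out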
Description: SANGER: Inhibition of human HCC1937 cell growth in a cell viability assay.

PC-14 = conditions: Homo sapiens;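 note: cell viability assay measuring inhibition of PC-14 cell growth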
Description: SANGER: Inhibition of human PC-14 cell growth in a cell viability assay.

NCI-H441 = conditions: Homo sapiens;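 note: growth inhibition of NCI-H441 cells, read out with a cell viability assay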
Description: SANGER: Inhibition of human NCI-H441 cell growth in a cell viability assay.

CAL-39 = conditions: Homo sapiens;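 note: cell viability assay measuring growth inhibition of CAL-39 cells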
Description: SANGER: Inhibition of human CAL-39 cell growth in a cell viability assay.

NCI-H1563 = conditions: Homo sapiens;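 note: growth inhibition of human NCI-H1563 cells, read out with a cell viability assay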
Description: SANGER: Inhibition of human NCI-H1563 cell growth in a cell viability assay.

HSC-3 = conditions: Homo sapiens
Description: SANGER: Inhibition of human HSC-3 cell growth in a cell viability assay.

CWR22R = conditions: Homo sapiens, 22Rv1;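 note: growth inhibition of 22Rv1 cells, read out with a cell viability assay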
Description: SANGER: Inhibition of human 22RV1 cell growth in a cell viability assay.

NCI-H1573 = conditions: Homo sapiens;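 note: growth inhibition of NCI-H1573 cells, read out with a cell viability assay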
Description: SANGER: Inhibition of human NCI-H1573 cell growth in a cell viability assay.

AU565 = conditions: Homo sapiens;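 note: cell viability assay measuring growth inhibition of human AU565 cells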
Description: SANGER: Inhibition of human AU565 cell growth in a cell viability assay.

LoVo = conditions: Homo sapiens;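 note: growth inhibition of human LoVo cells, read out with a cell viability assay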
Description: SANGER: Inhibition of human LoVo cell growth in a cell viability assay.

NCI-H727 = conditions: Homo sapiens;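 note: growth inhibition of human NCI-H727 cells, read out with a cell viability assay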
Description: SANGER: Inhibition of human NCI-H727 cell growth in a cell viability assay.

C-33-A = conditions: Homo sapiens;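 note: cell viability assay measuring growth inhibition of C-33-A cells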
Description: SANGER: Inhibition of human C-33-A cell growth in a cell viability assay.

OVCAR-3 = conditions: Homo sapiens;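 note: growth inhibition of human OVCAR-3 cells, determined by a cell viability assay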
Description: SANGER: Inhibition of human OVCAR-3 cell growth in a cell viability assay.

T47D = conditions: Homo sapiens;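 note: growth inhibition of human T47D cells, measured with a cell viability assay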
Description: SANGER: Inhibition of human T47D cell growth in a cell viability assay.

CHL-1 = conditions: Homo sapiens;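 note: cell growth inhibition, read out with a cell viability assay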
Description: SANGER: Inhibition of human CHL-1 cell growth in a cell viability assay.

G-361 = conditions: Homo sapiens
OVCAR-5 = conditions: Homo sapiens;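 note: growth inhibition of human OVCAR-5 cells, read out with a cell viability assay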
Description: SANGER: Inhibition of human OVCAR-5 cell growth in a cell viability assay.

HT-1080 = conditions: Homo sapiens
Description: SANGER: Inhibition of human HT-1080 cell growth in a cell viability assay.

MeWo = conditions: Homo sapiens;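 note: growth inhibition of MeWo cells, determined by a cell viability readout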
Description: SANGER: Inhibition of human Mewo cell growth in a cell viability assay.

LCLC-103H cell line = conditions: Homo sapiens
Description: SANGER: Inhibition of human LCLC-103H cell growth in a cell viability assay.

HSC-2 = conditions: Homo sapiens;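 note: growth inhibition of human HSC-2 cells, read out by a cell viability assay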
Description: SANGER: Inhibition of human HSC-2 cell growth in a cell viability assay.

HCC1395 = conditions: Homo sapiens;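 note: growth inhibition of HCC1395 cells, read out by a cell viability assay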
Description: SANGER: Inhibition of human HCC1395 cell growth in a cell viability assay.

BHY = conditions: Homo sapiens;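 note: cell growth inhibition read out by a viability assay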
Description: SANGER: Inhibition of human BHY cell growth in a cell viability assay.

Ca-Ski = conditions: Homo sapiens;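 note: cell viability assay measuring inhibition of Ca-Ski cell growth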
Description: SANGER: Inhibition of human Ca-Ski cell growth in a cell viability assay.

A-375 = conditions: Homo sapiens;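 note: growth inhibition of A375 cells, read out with a cell viability assay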
Description: SANGER: Inhibition of human A375 cell growth in a cell viability assay.

SK-MES-1 = conditions: Homo sapiens;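 note: growth inhibition of human SK-MES-1 cells, read out with a cell viability assay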
Description: SANGER: Inhibition of human SK-MES-1 cell growth in a cell viability assay.

NCI-H522 = conditions: Homo sapiens;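 note: cell viability assay measuring growth inhibition of human NCI-H522 cells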
Description: SANGER: Inhibition of human NCI-H522 cell growth in a cell viability assay.

BXPC-3 = conditions: Homo sapiens;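 note: growth inhibition of human BxPC-3 cells, read out by a cell viability assay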
Description: SANGER: Inhibition of human BxPC-3 cell growth in a cell viability assay.

MDA-MB-231 = conditions: Homo sapiens
Description: SANGER: Inhibition of human MDA-MB-231 cell growth in a cell viability assay.

U-251 = conditions: Homo sapiens;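 note: growth inhibition of human U-251 cells, read out through a cell viability assay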
Description: SANGER: Inhibition of human U251 cell growth in a cell viability assay.

COLO-679 = conditions: Homo sapiens
Description: SANGER: Inhibition of human COLO-679 cell growth in a cell viability assay.

A2780 = conditions: Homo sapiens;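 note: growth inhibition of A2780 cells, read out with a cell viability assay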
Description: SANGER: Inhibition of human A2780 cell growth in a cell viability assay.

OAW-42 = conditions: Homo sapiens;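 note: growth inhibition of OAW-42 cells, read out with a cell viability assay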
Description: SANGER: Inhibition of human OAW-42 cell growth in a cell viability assay.

SN12C = conditions: Homo sapiens;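 note: growth inhibition of human SN12C cells, measured by a cell viability assay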
Description: SANGER: Inhibition of human SN12C cell growth in a cell viability assay.

J82 = conditions: Homo sapiens;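 note: growth inhibition of J82 cells, read out with a cell viability assay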
Description: SANGER: Inhibition of human J82 cell growth in a cell viability assay.

A-427 = conditions: Homo sapiens;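 note: growth inhibition of human A-427 cells, read out by a cell viability assay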
Description: SANGER: Inhibition of human A427 cell growth in a cell viability assay.

NUGC-3 = conditions: Homo sapiens;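 note: growth inhibition of human NUGC-3 cells, read out with a cell viability assay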
Description: SANGER: Inhibition of human NUGC-3 cell growth in a cell viability assay.

SW1990 = conditions: Homo sapiens;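 note: cell growth inhibition determined with a viability assay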
Description: SANGER: Inhibition of human SW1990 cell growth in a cell viability assay.

MDA-MB-157 = conditions: Homo sapiens
Description: SANGER: Inhibition of human MDA-MB-157 cell growth in a cell viability assay.

Daoy = conditions: Homo sapiens;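 note: daoy cell growth inhibition, read out as cell viability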
Description: SANGER: Inhibition of human Daoy cell growth in a cell viability assay.

DK-MG = conditions: Homo sapiens
Description: SANGER: Inhibition of human DK-MG cell growth in a cell viability assay.

NCI-H1623 = conditions: Homo sapiens
Description: SANGER: Inhibition of human NCI-H1623 cell growth in a cell viability assay.

NCI-N87 = conditions: Homo sapiens
Description: SANGER: Inhibition of human NCI-N87 cell growth in a cell viability assay.

NCI-H1437 = conditions: Homo sapiens
Description: SANGER: Inhibition of human NCI-H1437 cell growth in a cell viability assay.

Measured: pIC50

Cc1ccc(NC(=O)c2cccc(C(C)(C)C#N)c2)cc1Nc1ccc2ncn(C)c(=O)c2c1
< 5.40: LP-1 | LC4-1 | CMK | Raji | SK-MM-2 | EVSA-T | Kasumi 1 | NB12 | RL | SR | EHEB | D-542MG | UACC-812 | LOUCY | NCI-H889 | NCI-H1694 | KMS-12-PE | SNU-C1 | NCI-H345 | SIMA | HCC1599
6.31: NB14

C/C(O)=C(\C#N)C(=O)Nc1cc(Br)ccc1Br
< 4.80: LP-1 | LC4-1 | HCC1937 | CMK | Raji | PC-14 | NCI-H441 | SK-MM-2 | CAL-39 | EVSA-T | NCI-H1563 | NB12 | HSC-3 | CWR22R | NCI-H1573 | AU565 | LoVo | NCI-H727 | C-33-A | RL | OVCAR-3 | T47D | SR | CHL-1 | EHEB | D-542MG | G-361 | UACC-812 | OVCAR-5 | HT-1080 | MeWo | LCLC-103H cell line | HSC-2 | NCI-H889 | HCC1395 | BHY | Ca-Ski | A-375 | SK-MES-1 | NCI-H1694 | NCI-H522 | KMS-12-PE | BXPC-3 | MDA-MB-231 | SNU-C1 | U-251 | COLO-679 | A2780 | NCI-H345 | OAW-42 | SN12C | SIMA | J82 | HCC1599 | A-427 | NUGC-3 | SW1990 | MDA-MB-157 | Daoy | DK-MG | NCI-H1623 | NCI-N87 | NCI-H1437

O=c1[nH]c2ccccc2n1C1CCN(Cc2ccc(-c3nc4cc5[nH]cnc5cc4nc3-c3ccccc3)cc2)CC1
5.65: BXPC-3
5.73: OVCAR-3
5.91: AU565
5.68: SK-MES-1
< 5.59: LP-1 | LC4-1 | HCC1937 | CMK | Raji | PC-14 | NCI-H441 | SK-MM-2 | CAL-39 | EVSA-T | NB12 | HSC-3 | CWR22R | LoVo | NCI-H727 | C-33-A | RL | SR | CHL-1 | EHEB | D-542MG | G-361 | UACC-812 | OVCAR-5 | HT-1080 | MeWo | LCLC-103H cell line | LOUCY | HSC-2 | NCI-H889 | HCC1395 | BHY | Ca-Ski | A-375 | NCI-H1694 | NCI-H522 | KMS-12-PE | MDA-MB-231 | U-251 | COLO-679 | A2780 | NCI-H345 | OAW-42 | SN12C | SIMA | J82 | HCC1599 | A-427 | NUGC-3 | SW1990 | MDA-MB-157 | Daoy | DK-MG | NCI-H1623 | NCI-N87 | NCI-H1437
6.29: T47D
5.85: Kasumi 1
6.27: NCI-H1563
5.70: SNU-C1

Fc1cc(-c2cc[nH]/c(=N/c3ccc(-n4cnc(N5CCOCC5)n4)cc3)n2)cc(N2CCOCC2)c1
< 5.29: NCI-H441 | T47D | DK-MG | NCI-N87
5.89: NCI-H1623
5.34: NCI-H345
6.05: NCI-H522
6.70: MeWo
6.25: OVCAR-3
6.87: LCLC-103H cell line
5.94: SN12C
6.95: LOUCY
5.65: NCI-H889
6.26: CMK
5.88: U-251
6.32: LP-1
6.51: CAL-39
5.99: CWR22R
6.10: J82
6.36: LoVo
6.31: Raji | CHL-1
6.74: OVCAR-5
6.29: BHY
6.11: SIMA
6.49: NCI-H1563
6.82: SK-MES-1
6.21: A-375
5.96: SW1990
6.33: HCC1599
6.38: HCC1395
6.61: NCI-H1437
6.65: HSC-2
5.90: SK-MM-2 | EVSA-T
6.54: AU565 | A-427
5.91: HCC1937
6.15: HSC-3
5.93: KMS-12-PE
6.19: NCI-H727 | A2780
6.16: NUGC-3
6.06: PC-14 | OAW-42 | Daoy
6.42: NB12 | EHEB
6.34: MDA-MB-157
6.60: C-33-A | COLO-679
6.01: MDA-MB-231
6.27: Ca-Ski
5.35: UACC-812
5.82: NCI-H1694
6.37: LC4-1 | HT-1080
5.80: RL
6.58: G-361
6.41: SNU-C1
6.47: Kasumi 1
6.91: SR
6.45: D-542MG | BXPC-3
